PMC12150326 (The Journal of Organic Chemistry, 2025)
Like-named read-outs stand apart in the source and are kept apart here.

Experiments:
Type in all cases: cell-based, human
[1] = system: HT29
How it was run: (§1)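 First, compounds went into the NCI-60 cell panel. Next, they were dosed at 0.01, 0.1, 1, 10 and 100 μM. Finally, TGI levels fed a COMPARE analysis against prior tubulin-inhibitor data.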

[2] = system: DU-145
How it was run: (§2)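 Compounds were tested in the NCI 60-cell-line panel at five concentrations: 100 μM, 10 μM, 1 μM, 0.1 μM and 0.01 μM. For COMPARE analysis, TGI response levels were matched against those of established tubulin inhibitors previously run in the same screen.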

[3] = system: SF-539
How it was run: as §1

[4] = system: SW-620
How it was run: as §1

[5] = system: RXF 393
How it was run: as §1

[6] = system: OVCAR-5
How it was run: as §1

[7] = system: COLO 205
How it was run: as §1

[8] = system: SNB-75
How it was run: as §1

[9] = system: SF-268
How it was run: as §2

[10] = system: HCT-116
How it was run: as §1

[11] = system: KM12
How it was run: as §2

[12] = system: PC-3
How it was run: as §2

[13] = system: NCI-H460
How it was run: as §1

COc1cc(C)c(-c2ccc(OC)c(=O)cc2C)c(OC)c1OC (single isomer, unassigned) [(aR)-6]
3550 nM: GI50 ([2]; Homo sapiens)
-5.76 Molar: Log10GI50 [7] | Log10GI50 ([7]; listed as (aR)-DM-MTC)
-5.73 Molar: Log10GI50 [1] | Log10GI50 ([1]; listed as (aR)-DM-MTC)
1740 nM: GI50 ([7]; Homo sapiens)
-4.74 Molar: Log10LC50 [7]
-5.45 Molar: Log10GI50 [2] | Log10GI50 ([2]; listed as (aR)-DM-MTC)
2240 nM: GI50 ([3]; Homo sapiens)
5500 nM: GI50 ([9]; Homo sapiens)
910 nM: GI50 ([8]; Homo sapiens)
-5.71 Molar: Log10GI50 [5] | Log10GI50 ([5]; listed as (aR)-DM-MTC) | Log10GI50 [10] | Log10GI50 ([10]; listed as (aR)-DM-MTC)
-5.65 Molar: Log10GI50 [3] | Log10GI50 ([3]; listed as (aR)-DM-MTC)
-6.04 Molar: Log10GI50 [8] | Log10GI50 ([8]; listed as (aR)-DM-MTC)
-5.36 Molar: Log10GI50 [6] | Log10GI50 ([6]; listed as (aR)-DM-MTC)
> -4.00 Molar: Log10LC50 [1] | Log10LC50 [2] | Log10TGI [2] | Log10LC50 [3] | Log10TGI [3] | Log10LC50 [4] | Log10TGI [4] | Log10LC50 [5] | Log10TGI [5] | Log10LC50 [6] | Log10TGI [6] | Log10LC50 [8] | Log10LC50 [9] | Log10TGI [9] | Log10LC50 [10] | Log10TGI [10] | Log10LC50 ([11]; KM12) | Log10TGI ([11]; KM12) | Log10LC50 [12] | Log10TGI [12] | Log10LC50 [13] | Log10TGI [13]
2290 nM: GI50 ([12]; Homo sapiens)
1620 nM: GI50 ([11]; Homo sapiens, KM12 (printed KM29))
-5.79 Molar: Log10GI50 ([11]; KM12) | Log10GI50 ([11]; KM12, listed as (aR)-DM-MTC)
-5.91 Molar: Log10GI50 [4] | Log10GI50 ([4]; listed as (aR)-DM-MTC)
-5.02 Molar: Log10TGI [1]
-5.55 Molar: Log10GI50 [13] | Log10GI50 ([13]; listed as (aR)-DM-MTC)
-5.26 Molar: Log10GI50 [9] | Log10GI50 ([9]; listed as (aR)-DM-MTC)
-5.64 Molar: Log10GI50 [12] | Log10GI50 ([12]; listed as (aR)-DM-MTC)
1230 nM: GI50 ([4]; Homo sapiens)
-5.35 Molar: Log10TGI [7]
4370 nM: GI50 ([6]; Homo sapiens)
1950 nM: GI50 ([5]; Homo sapiens) | GI50 ([10]; Homo sapiens)
1860 nM: GI50 ([1]; Homo sapiens, HT-29)
2820 nM: GI50 ([13]; Homo sapiens)

COc1cc(C)c(-c2ccc(=O)c(OC)cc2C)c(OC)c1OC (single isomer, unassigned) [(aR)-iso-6]
-4.40 Molar: Log10GI50 [8]
> -4.00 Molar: Log10GI50 [1] | Log10LC50 [1] | Log10TGI [1] | Log10GI50 [3] | Log10LC50 [3] | Log10TGI [3] | Log10GI50 [4] | Log10LC50 [4] | Log10TGI [4] | Log10GI50 [5] | Log10LC50 [5] | Log10TGI [5] | Log10GI50 [6] | Log10LC50 [6] | Log10TGI [6] | Log10GI50 [7] | Log10LC50 [7] | Log10TGI [7] | Log10LC50 [8] | Log10TGI [8] | Log10GI50 [10] | Log10LC50 [10] | Log10TGI [10] | Log10GI50 [12] | Log10LC50 [12] | Log10TGI [12] | Log10GI50 [13] | Log10LC50 [13] | Log10TGI [13]
